Measured values reported in US10907219B2, “Compositions and methods for controlling cellular function” (STC.UNM, priority 2014, dated 2021).
“Also recorded” adds a separate entry of the source.

Key:
[1] = tested on: CHO cells transfected with ABA-inducible luciferase constructs; experiment: ABA-inducible luciferase assay; assay type: cell-based
[2] = tested on: myr-ABI and PYL-eGFP-Tiam1 in CHO cells; experiment: H2O2-induced ruffle formation (Tiam1 membrane localization); assay type: cell-based
Description: To further investigate whether a complex biological process can be triggered by H2O2-induced protein dimerization, we examined the membrane ruffle formation resulting from localized Rho GTPase activation. Tiam1 is a guanine exchange factor for Rac, a member of Rho GTPase. The membrane translocation of Tiam1 activated Rac signaling pathway and induced ruffle formation, which is involved in cell migration and morphogenesis. We constructed an ABA-inducible Tiam1 membrane localization system, which consists of DNA plasmids encoding the membrane-localized ABI (myr-ABI; Liang et al., 2011, Sci. Signal. 4, rs2) and the cytoplasmic eGFP/PYL-fused Tiam1 (PYL-eGFP-Tiam1) (FIG. 2a). CHO cells were transfected with these plasmids for 24 hours and then incubated for one hour without additive, or with 10 μM of ABA, ABA-HP or ABA-HP plus 10 eq of H2O2. The ruffle formation in cells was analyzed by the confocal microscopy.
Ruffle generation experiment: CHO were seeded in 24-well plates at 50 K/well with coverslip for 24 hours. 0.1 μg PYL-eGFP-Tiam1 and 0.1 μg myr-ABI (FIG. 2a, iii) of DNA plasmid were used for each well, with 30 μL of Opti-MEM (Life Technologies, Carlsbad, Calif.) and 1.8 μL PEI. After incubation at room temperature for 15 min, the mixture was added to the cells and cultured for 24 hours. […]

[3] = tested on: NES-ABI and PYL-eGFP in CHO cells; experiment: H2O2-induced ABA-mediated eGFP nuclear exporting (NES localization); assay type: cell-based
Experimental: Various cellular events are regulated by the dynamic sub-cellular translocation of proteins. To test if protein translocation can be controlled by H2O2, we used a known ABA-inducible eGFP nuclear exporting system consisting of NES-ABI and PYL-eGFP DNA constructs (FIG. 2a; Liang et al., 2011, Sci. Signal. 4, rs2). CHO cells were transfected with both plasmids for 24 hours and then incubated without additive, or with 10 μM of ABA, ABA-HP, or ABA-HP plus 10 eq of H2O2 for one hour.
NES localization experiments: CHO cells were seeded in 24-well plates at 50 K/well with coverslip for 24 hours. 0.4 μg NES-ABI and 0.2 μg eGFP-PYL (FIG. 2a, ii) of DNA plasmid were used for each well, with 30 μL of Opti-MEM (Life Technologies, Carlsbad, Calif.) and 1.8 μL of PEI. After incubation at room temperature for 15 min, the mixture was added to the cells and cultured for 24 hours. Then, 10 μM ABA-HP was added to the cells 10 minutes prior to the addition of 10 μM ABA and 100 μM of H2O2, or 10 μM GA-HP was added to the cells 10 minutes prior to the addition of 10 μM GA-AM and 100 μM of H2O2. Slides were made 30 minutes after addition of compounds and images were taken the next day.
An Axio Observer D1 fluorescent microscope (Carl Zeiss AG, Oberkochen, Germany) outfitted with HBO 100 microscopy illumination system (Carl Zeiss AG, Oberkochen, Germany; GFP: excitation 470/40 and emission 525/50) was used to analyze GFP expression and NES localization. A 20× objective was used to analyze GFP expression. A 63× objective was used for NES localization.

[4] = Chemical stability of caged ABA in HEPES buffer/DMSO in the dark (HPLC); assay type: physicochemical; details: 70% HEPES buffer/30% DMSO, 37° C., 24 h
Experimental: FIG. 26. Chemical stability of ABA-DMNB. ABA-DMNB was incubated in 70% HEPES buffer/30% DMSO at 37° C. for 24 h in the dark. The samples were analyzed by HPLC.
FIG. 32. Chemical stability of ABA-DEACM. ABA-DEACM was incubated in 70% HEPES buffer/30% DMSO at 37° C. for 24 h in the dark. The samples were analyzed by HPLC and absorbance was monitored at 250 nm.
HPLC analysis: Reversed-phase HPLC was performed on an ACCLAIM 120 (4.6×100 mm) C18 column (Thermo Fisher Scientific, Waltham, Mass.) with an ULTIMATE 3000 pump system, including a Variable Wavelength Detector 3100, Degasser 1210, and Autosampler SPS 3000 (Thermo Fisher Scientific, Waltham, Mass.). A mixture of water and acetonitrile containing 0.1% TFA was used as the eluent. Absorbance at 250 nm was used to monitor the elution of the molecules. The method used an increase in acetonitrile from 5% to 95% over 15 minutes to elute the molecules at a flow rate of 0.7 mL/min. The peaks for the molecules were integrated by using Chromeleon software (Thermo Fisher Scientific, Waltham, Mass.). The molar absorptivity of both free and caged ABA at 250 nm were measured, which was used to calculate the concentration of each species from the intensity of absorbance at 250 nm. […]

[5] = Reaction selectivity of ABA-HP versus different molecules (HPLC); assay type: physicochemical; details: four hours
Experimental: Reaction selectivity versus different molecules: 100 μM ABA-HP was incubated with 100 μM (1 eq) of different molecules in 50% HEPES/DMSO (pH 7.4) at 37° C. for 4 hours and detected by HPLC. H2S was generated by 100 μM Na2S solution in HEPES buffer, which can slowly release H2S. .OH and .OtBu were generated by reaction of Fe^2+ with H2O2 or tert-butyl hydroperoxide (TBHP), respectively. HPLC condition was the same as the stability and reactivity test of ABA-HP.

[6] = 10 μM, compound alone, CHO cells
[7] = 10 μM plus 10 eq of H2O2, CHO cells

With CC1=CC(=O)CC(C)(C)C1(O)/C=C/C(C)=C\C(=O)O (stereo not shown) [ABA, abscisic acid, reference compound] the “dose dependence of gene expression” value ([1]; increasing dosages, not irradiated) was “dose-dependent induction of gene expression”, the ruffle formation [2, 6] was “showed obvious ruffle formation” and the “sub-cellular location of PYL-eGFP” value [3, 6] was “localized out of the nucleus”.
With CCN(CC)c1ccc2c(COC(=O)/C=C(C)\C=C\[C@@]3(O)C(C)=CC(=O)CC3(C)C)cc(=O)oc2c1 [ABA-DEACM] the “chemical stability in biological buffer in the dark” value [4] was “no chemical decomposition; also recorded: stable chemically”.
With COc1cc(COC(=O)/C=C(C)\C=C\[C@@]2(O)C(C)=CC(=O)CC2(C)C)c([N+](=O)[O-])cc1OC [ABA-DMNB] the “dose dependence of luciferase expression” value ([1]; increasing concentrations, with irradiation) was “corresponding increases in the level of luciferase expression”, the luciferase expression ([1]; irradiated 365 nm UV 120 seconds in cell culture, twelve hours) was “induced luciferase expression” and the “chemical stability in biological buffer in the dark” value [4] was “no chemical decomposition; also recorded: stable at 37 °C in biological buffer in the dark for 24 hours”.
In the case of CC1=CC(=O)CC(C)(C)[C@@]1(O)/C=C/C(C)=C\C(=O)OCc1ccc(B2OC(C)(C)C(C)(C)O2)cc1 [ABA-HP], the ruffle formation [2, 7] is reported as “showed obvious ruffle formation”, the “sub-cellular location of PYL-eGFP” value [3, 7] is reported as “caused rapid nuclear export” and the “sub-cellular location of PYL-eGFP” value [3, 6] is reported as “did not change the sub-cellular location of eGFP-PYL”. For the same molecule, the “stability against other ROS, H2S, metal ions” value ([5]; 100 μM ABA-HP, molecules at 100 μM, 37° C.) was “stable against all molecules tested at 100 μM”, the “effect of Cu^+ and Cu^2+” value ([5]; Cu^+ and Cu^2+ at 10 μM) was “no effects” and the “cleavage by Cu^+ and Cu^2+” value ([5]; Cu^+ and Cu^2+ at 100 μM) was “minimal amount of cleavage”.
